Some results are limits rather than exact numbers.

The target of one assay is CDK2 (human) (UniProt P24941). The assay is described as follows: Cell-Based Assay. The note with it: hdf-3.
Turning to `NS(=O)(=O)c1ccc(NN=C2C(=O)Nc3ccc(-c4cnco4)cc32)cc1`, the IC50 was 0.35 µM.

Staying with this assay, now noted: mda-mb-468.
The compound `CNS(=O)(=O)Cc1ccc(NN=C2C(=O)Nc3cc(C)c(O)c(C)c32)cc1` gave an IC50 of 0.3 µM.
On the same count and under the same terms, the result for `CN(C)S(=O)(=O)c1ccc(N/C=C2\C(=O)Nc3ccc(-c4cnco4)cc32)cc1` reads over 5 µM; that for `NS(=O)(=O)c1ccc(NN=C2C(=O)Nc3ccc(-c4cnco4)cc32)cc1`, 0.35 µM.

Staying with this assay, now noted: rko.
Turning to `NS(=O)(=O)c1ccc(NN=C2C(=O)Nc3ccc(-c4cnco4)cc32)cc1`, the concentration for half-maximal inhibition (IC50) amounted to 0.35 µM.

The target in a further assay is CDK2 (human) (UniProt P24941). The assay is described as follows: Cell-Based Assay. The note with it: rko.
Regarding `NS(=O)(=O)c1ccc(NN=C2C(=O)Nc3ccc(-c4cnco4)cc32)cc1`, the half-inhibitory concentration (IC50) was 0.35 µM.

Another assay concerns the target CDK2 (human) (UniProt P24941). The assay is described as follows: Enzyme Assay.
Conditions: not given
`CCOC(=O)c1cnc2c(c1)/C(=C/Nc1ccc3ncccc3c1)C(=O)N2` had an IC50 of 0.55 µM.
In turn, `CCOC(=O)c1cnc2c(c1)/C(=C/Nc1ccc(S(N)(=O)=O)cc1)C(=O)N2` displayed an IC50 of 0.055 µM.
Compound `NS(=O)(=O)c1ccc(N/C=C2\C(=O)Nc3nc(Cl)ccc32)cc1` came in with an IC50 of 0.55 µM.
On the same count and under the same terms, the result for `NS(=O)(=O)c1ccc(N/C=C2\C(=O)Nc3cnccc32)cc1` reads 0.055 µM; that for `O=C1Nc2ccc3ccncc3c2/C1=C/Nc1ccc(CCO)cc1`, 0.075 µM; that for `O=C1Nc2ccc3ccncc3c2/C1=C/Nc1ccc(Cc2ccncc2)cc1`, 0.03 µM.
Still for that read-out and setting: the result for `O=C1Nc2nc(Cl)ccc2/C1=C/Nc1ccc2cn[nH]c2c1` reads 0.55 µM.
The same measure, in the same setting: for `O=C1Nc2ncc(Br)cc2/C1=C/Nc1ccc2ncccc2c1` the value was 0.055 µM.
Consider `Cc1cc(=O)[nH]n1-c1ccc(N/C=C2\C(=O)Nc3ccc4ncsc4c32)cc1`, for which the half-maximal inhibitory concentration (IC50) was 0.03 µM.
The same measure, in the same setting: for `NC(=O)c1ccc(N/C=C2\C(=O)Nc3ccc4ncsc4c32)cc1` the value was 0.075 µM; for `O=C1Nc2ccc3ccncc3c2/C1=C/Nc1ccc(N2CCOCC2)cc1`, over 0.1 µM.
In the case of `NS(=O)(=O)c1ccc(N/C=C2\C(=O)Nc3ncc(Br)cc32)cc1`, the IC50 is 0.055 µM.
On the same count and under the same terms, for `O=C1Nc2ncc(-c3ccco3)cc2/C1=C/Nc1ccc2cn[nH]c2c1` the value was 5.5 µM.
The compound `O=C1Nc2ncc(-c3ccsc3)cc2/C1=C/Nc1ccc2cn[nH]c2c1` returned a half-inhibitory concentration (IC50) of 0.55 µM.
Same read-out and setting: the result for `NS(=O)(=O)c1ccc(N/C=C2/C(=O)Nc3ccncc32)cc1.NS(=O)(=O)c1ccc(N/C=C2\C(=O)Nc3ccncc32)cc1` reads 0.055 µM; that for `O=C1Nc2ncc(Br)cc2/C1=C/Nc1ccc2cn[nH]c2c1`, 0.055 µM; that for `CCOC(=O)c1cnc2c(c1)/C(=C/Nc1ccc3cn[nH]c3c1)C(=O)N2`, 0.055 µM.
`NS(=O)(=O)c1ccc(N/C=C2\C(=O)Nc3ncc(-c4ccccc4)cc32)cc1`: the IC50 was 5.5 µM.
The same measure, in the same setting: the result for `NS(=O)(=O)c1ccc(N/C=C2\C(=O)Nc3ncccc32)cc1` reads 0.55 µM.
On the same count and under the same terms, for `NS(=O)(=O)c1ccc(N/C=C2\C(=O)Nc3ncc(-c4ccsc4)cc32)cc1` the value was 0.55 µM; for `NS(=O)(=O)c1ccc(N/C=C2\C(=O)Nc3ncc(-c4ccco4)cc32)cc1`, 0.055 µM.

What is called IC50 is the point on the concentration scale where inhibition reaches its midpoint. A high value points to lower potency.

The record behind these values is the Kinase Knowledgebase extract (Sharma et al. 2016).
